# Results published in publication PMC6297231 (Nature Communications, 2018).
# How the values were obtained:
# H1048 = assay: Cell viability assay; format: cell-based; conditions: Homo sapiens, NCI-H1048, 24 h; H1048 (Lung); read-out: AZD5991 24h GI50
# Method: (§2) Cells were plated at 3000 cells/well in 384-well white plates in corresponding cell growth media. […] Caspase-3/7 activation was subsequently determined using a Caspase-Glo 3/7 Reagent (Promega) and viability was assayed using the CellTiter-Glo Reagent (Promega) as described in manufacturer’s instructions. Dose–response curves for caspase-3/7 activation and viability were plotted and analyzed (including EC50 and GI50 determination) using GraphPad Prism.
# Kasumi3 = assay: Cell viability assay; format: cell-based; conditions: Kasumi-3, 24 h; Kasumi3 (AML); read-out: AZD5991 24h GI50
# Method: as §2
# MOLP-8 cells = assay: Kinetics of apoptosis and cell death markers; format: cell-based
# Method: Data presented in Fig. 4b was calculated as follows:4 TMRE:(TMREnegativesample-TMREnegativeDMSO)∕(TMREnegative500nMAZD5991@24h-TMREnegativeDMSO)×100 5 Annexin V : (Annexin V positive sample) - Annexin positive DMSO∕(Annexin positive 500nM AZD5991@24h) - Annexin positive DMSO × 100 6 7AAD : (7AAD positive sample) - 7AAD positive 500nM AZD5991@0.5h∕(7AAD positive 500nM AZD5991@16h) - 7AAD positive 500nM AZD5991@0.5h × 100
# Sudhl4 [1] = assay: cells; conditions: Homo sapiens, SU-DHL-4, 6 h, read-out: AZD5991 6h EC50
# In short: (§1)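 Cells were seeded at 3000 cells/well in their respective growth media and treated with compound. Caspase-3/7 activation was read by Caspase-Glo 3/7 luminescence and viability by CellTiter-Glo; EC50 and GI50 came from dose–response curves. Caspase activation is expressed relative to a cell-kill control set at 100%.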
# PL21 = assay: cells; conditions: PL-21, 6 h, read-out: AZD5991 6h EC50
# In short: as §1
# H2171 = assay: cells; conditions: Homo sapiens, NCI-H2171, 6 h, read-out: AZD5991 6h EC50
# In short: as §1
# OPM2 = assay: cells; conditions: Homo sapiens, OPM-2, 6 h, read-out: AZD5991 6h EC50
# In short: as §1
# Pfeiffer = assay: cells; conditions: Homo sapiens, 6 h, read-out: AZD5991 6h EC50
# In short: as §1
# Raji = assay: cells; conditions: Homo sapiens, 6 h, read-out: AZD5991 6h EC50
# In short: as §1
# Will2 = assay: cells; conditions: 6 h, read-out: AZD5991 6h EC50
# In short: as §1
# LnCAP = assay: cells; conditions: Homo sapiens, 6 h, read-out: AZD5991 6h EC50
# In short: as §1
# WSUNHL [2] = assay: cells; conditions: Homo sapiens, WSU-NHL, 6 h, read-out: AZD5991 6h EC50
# In short: as §1
# Sudhl5 = assay: cells; conditions: Homo sapiens, SU-DHL-5, 6 h, read-out: AZD5991 6h EC50
# In short: as §1
# Sudhl2 = assay: cells; conditions: Homo sapiens, SU-DHL-2, 6 h, read-out: AZD5991 6h EC50
# In short: as §1
# OCILY1 = assay: cells; conditions: Homo sapiens, OCI-Ly1, 6 h, read-out: AZD5991 6h EC50
# In short: as §1
# A375 = assay: cells; conditions: Homo sapiens, A-375, 6 h, read-out: AZD5991 6h EC50
# In short: as §1
# ULA = assay: cells; conditions: 6 h, read-out: AZD5991 6h EC50
# In short: as §1
# Sudhl16 = assay: cells; conditions: Homo sapiens, SU-DHL-16, 6 h, read-out: AZD5991 6h EC50
# In short: as §1
# Sudhl10 = assay: cells; conditions: Homo sapiens, SU-DHL10, 6 h, read-out: AZD5991 6h EC50
# In short: as §1
# Ramos = assay: cells; conditions: Homo sapiens, 6 h, read-out: AZD5991 6h EC50
# In short: as §1
# Daudi = assay: cells; conditions: Homo sapiens, 6 h, read-out: AZD5991 6h EC50
# In short: as §1
# DU145 = assay: cells; conditions: Homo sapiens, DU-145, 6 h, read-out: AZD5991 6h EC50
# In short: as §1
# SKMEL2 = assay: cells; conditions: Homo sapiens, SK-MEL-2, 6 h, read-out: AZD5991 6h EC50
# In short: as §1
# U266B1 = assay: cells; conditions: 6 h, read-out: AZD5991 6h EC50
# In short: as §1
# NCI-H929 = assay: cells; conditions: Homo sapiens, NCI-H929, 6 h, read-out: AZD5991 6h EC50
# In short: as §1
# HCC1187 = assay: cells; conditions: Homo sapiens, HCC1187, 6 h, read-out: AZD5991 6h EC50
# In short: as §1
# ARH77 = assay: cells; conditions: Homo sapiens, ARH-77, 6 h, read-out: AZD5991 6h EC50
# In short: as §1
# HMCB = assay: cells; conditions: Homo sapiens, 6 h, read-out: AZD5991 6h EC50
# In short: as §1
# SKBR3 = assay: cells; conditions: Homo sapiens, SK-BR-3, 6 h, read-out: AZD5991 6h EC50
# In short: as §1
# Sudhl4 [3] = assay: Cell viability assay; format: cell-based; conditions: Homo sapiens, SU-DHL-4, 24 h; Sudhl4 (NHL); read-out: AZD5991 24h GI50
# Method: as §2
# WSUNHL [4] = assay: Cell viability assay; format: cell-based; conditions: Homo sapiens, WSU-NHL, 24 h, read-out: AZD5991 24h GI50
# Method: as §2
compound,measurement,setting,value
"Cc1c2c(nn1C)CSCc1cc(n(C)n1)CSc1cc(c3ccccc3c1)OCCCc1c(C(=O)O)n(C)c3c-2c(Cl)ccc13 (atropisomer, axis not shown; (Ra)) [(Ra)-7]",GI50,H1048,4250 nM
same,GI50,Kasumi3,172 nM
same,time to loss of ATP and disruption of the cell membrane,MOLP-8 cells,less than 24 h
same,"time to maximum increase in MOMP, caspase-3/7 activation and phosphatidyl-serine exposure","MOLP-8 cells; MOLP-8 cells, 500 nM",less than 2 h
same,EC50,Sudhl4 [1],266 nM
same,EC50,PL21,409 nM
same,EC50,H2171,141 nM
same,EC50,OPM2,59 nM
same,EC50,Pfeiffer,> 30000 nM
same,EC50,Raji,7400 nM
same,EC50,Will2,193 nM
same,EC50,LnCAP,> 30000 nM
same,EC50,WSUNHL [2],512 nM
same,EC50,Sudhl5,19 nM
same,EC50,Sudhl2,275 nM
same,EC50,OCILY1,547 nM
same,EC50,A375,> 30000 nM
same,EC50,ULA,207 nM
same,EC50,Sudhl16,139 nM
same,EC50,Sudhl10,10 nM
same,EC50,Ramos,28 nM
same,EC50,Daudi,16100 nM
same,EC50,DU145,> 30000 nM
same,EC50,SKMEL2,9480 nM
same,EC50,U266B1,> 30000 nM
same,EC50,NCI-H929,60 nM
same,EC50,HCC1187,235 nM
same,EC50,ARH77,23900 nM
same,EC50,HMCB,25900 nM
same,EC50,SKBR3,> 30000 nM
same,GI50,Sudhl4 [3],127 nM
same,GI50,WSUNHL [4],221 nM
